{"source": "patent US8637679B2", "about": "“Process for the isolation of organic compounds useful for the treatment of cancer” (Council of Scientific and Industrial Research, priority 2011, dated 2014)", "key": {"REH": {"system": "REH", "assay": "MTT cell viability assay, REH", "format": "cell-based, human", "details": "Homo sapiens, 48 hrs", "experimental": "(§1) Human cervical cancer cell lines (HeLa, ME-180 and SiHa), brain tumor cell lines (U87MG, U373MG, U87MG EGFRvIII, T98G, A172 and LN229), lymphoid leukemia (MOLT-3, MOLT-4, REH and CEMC-7), myloid leukemia (K562), pancreatic cancer (MIAPaCa-2, AsPC-1, Panc-1 and Panc 10.05), lung cancer (A549) and colon cancer (HCT116 and SW480) cell lines from American Type Culture Collection, Manassas, Va., USA were grown in IMDM or RPMI (cell specific) Medium supplemented with 10% fetal bovine serum and 1% antibiotic-antimycotic. Cells were cultured in 37° C. in an atmosphere of 5% CO2.\n(§2) Viability of cancer cell lines after treatment as at the indicated times was determined by MTT assay. Briefly, 10,000 cells were plated in triplicate in 96 well plates and incubated for 24 and 48 hours in complete media in presence of varying dose of mahanine (0-50 μM). 100 ug MTT was added in each well. Incubate the plate for 1-4 hours at 37° C. and humidified 5% CO2 atmosphere. Absorbance was recorded at 550 nm with 96 well plate readers."}, "K562": {"system": "K562", "assay": "MTT cell viability assay, K562", "format": "cell-based, human", "details": "Homo sapiens; K562, 48 hrs", "experimental": "as §1, §2"}, "U87MG": {"system": "U87MG", "assay": "MTT cell viability assay, U87MG", "format": "cell-based, human", "details": "Homo sapiens, U-87 MG, 48 hrs", "experimental": "as §1, §2"}, "MIAPaCa-2 [1]": {"system": "MIAPaCa-2", "assay": "MTT cell viability assay, MIAPaCa-2", "format": "cell-based, human", "details": "Homo sapiens, MIA PaCa-2; MIAPaCa-2, 48 hrs", "experimental": "as §1, §2"}, "AsPC1": {"system": "AsPC1", "assay": "MTT cell viability assay, AsPC1", "format": "cell-based, human", "details": "Homo sapiens; AsPC1, 48 hrs", "experimental": "as §1, §2"}, "Panc1": {"system": "Panc1", "assay": "MTT cell viability assay, Panc1", "format": "cell-based, human", "details": "Homo sapiens, PANC-1; Panc1, 48 hrs", "experimental": "as §1, §2"}, "SW480": {"system": "SW480", "assay": "MTT cell viability assay, SW480", "format": "cell-based, human", "details": "Homo sapiens; SW480, 48 hrs", "experimental": "as §1, §2"}, "cancer cell lines": {"system": "cancer cell lines", "assay": "MTT assay, pooled cancer cell lines of several cancer types", "format": "cell-based, human", "experimental": "as §1, §2"}, "ME180": {"system": "ME180", "assay": "7-AAD flow cytometric apoptosis, ME180", "format": "cell-based, human", "details": "ME180, 25 μM mahanine", "quoted_text": "U87MG, LN229, HeLa, SiHa and ME180 (1×10^6 cells) cells were cultured in 6-well plates in presence or absence of Mahanine (25 μM) for 24 hrs. Cells were washed in PBS, incubated with 7-Aminoactinomycin D (7-AAD) at 4° C. for 20 min and processed. Data acquisition was done on a FACSCalibur flow cytometer (BD) at excitation wavelength at 488 nm and emission wavelength at 647 nm and analyzed with CellQuestPro software."}, "Hsp90-Cdc37 complex": {"system": "Hsp90-Cdc37 complex", "assay": "Co-immunoprecipitation of Hsp90-Cdc37 complex", "format": "cell-based, human", "experimental": "Different human cancer cells (1×10^6 cells) were incubated with complete medium alone or with different dose of Mahanine (10-20 μM) as indicated. Cells were detached using trypsin-EDTA solution. They were collected by centrifugation at 1500 g for 10 mins and lysed by sonication. Aliquots containing 60 μg total cellular protein were separated by 10% SDS-PAGE and transferred to nitrocellulose membrane (MILIPORE, Bedford, Mass., USA). Membrane was blocked with blocking buffer for 1 hour at room temperature and probed with desired primary antibody Hsp90, Hsp70, Hsp40, p23, HOP, Cdc37, B-Raf, Stat-3, Bcl-xl, Akt, PARP, β-actin (Cell signaling technology, USA) and caspase-3 (Santa Cruz, USA), caspase9, cytochrome c (cell signaling technology, USA) for overnight at 4° C. followed by HRP conjugated secondary antibody and detected by ECL. For the detection of association of the Hsp90-Cdc37, Hsp90-p23 and Hsp90-HOP, total cell lysate (400 μg) was treated with anti-Hsp-90 antibody (1:100 dilutions) and incubated overnight at 4° C. The chaperonic complex was resolved by SDS-PAGE (10%), transferred and probed separately with anti-Cdc37, anti-HOP, anti-p23 and anti-Hsp-90 antibodies. In the few immunoprecipitation experiments anti-Cdc37 used as precipitating antibody and Hsp90 was used as detection antibody. For the proteasomal inhibition assay cells were pretreated with 10 μM MG132 for 1 hr and then cells are exposed in 20 μM mahanine for 24 hrs. For proteasomal inhibition assay at 6 hrs incubation in MIAPaCa-2, cells were pre-incubated with 20 μM MG132 for 1 hr and then cells were exposed in 30 μM mahanine."}, "MIAPaCa-2 [2]": {"system": "MIAPaCa-2", "assay": "Scratch-wound haptotaxis assay, MIAPaCa-2", "format": "cell-based, human", "details": "MIAPaCa-2, highest treated cells, 6 hrs", "experimental": "(§3) Highly and moderately invasive pancreatic cancer cell lines, MIAPaCa-2 and BxPC3 (1×10^6/ml/well) were cultured to >90% confluence in 6 well plate. Consequently, cell were rinsed with PBS and starved in low serum media (2 ml containing 0.5%-0.1% serum in RPMI-1640 for MIAPaCa-2 and BxPC-3) for overnight. On the following day, three separate scratch-wounds were made through the confluent cells. Scratched plate was rinsed with PBS and replaced with serum starved media containing successive doses of mahanine or EtOH for 6 hrs. Picture was taken by using phase contrast at 10× accordingly."}, "BxPC-3": {"system": "BxPC-3", "assay": "Scratch-wound haptotaxis assay, BxPC-3", "format": "cell-based, human", "details": "BxPC-3, highest treated cells, 6 hrs", "experimental": "as §3"}, "In vivo toxicity in mice": {"assay": "In vivo toxicity in mice", "experimental": "Animals were examined for 1 month after the administration of acute toxic dose (150 mg/kg/day); there was no change in behavior, feeding habit, total body mass and in number of biochemical and haematological parameters."}, "[3]": {"assay": "In vivo bioavailability after oral feeding", "set-up": "species or system Balb/c mice", "details": "after oral administration", "experimental": "EtOAc extract of Murraya koenigii was orally feeded to normal healthy Balb/c (100 mg/kg body weight) and blood was collected from retro orbital plexus after 30 min interval by glass capillary. Control blood was collected from the mice before the […] of extract. The Institutional Animal Ethical Committee had approved the study. Blood serum was isolated and the serum protein was separated by centrifugation in ice-cold acetone. Supernatant was evaporated to dryness and residual part was dissolved in minimum volume of MeOH and injected into the HPLC column."}}, "note": "Read-outs that look alike come from different tables or passages of the source.", "data": [{"compound": "CC(C)=CCCC1(C)C=Cc2c(c(C)cc3c2[nH]c2cc(O)ccc23)O1", "note": "(stereo not drawn) [Mahanine, mahanine]", "values": [{"measurement": "IC50", "setting": "REH", "result": "11.6 ± 0.7", "unit": "µM"}, {"measurement": "IC50", "setting": "K562", "result": "13 ± 1.1", "unit": "µM"}, {"measurement": "IC50", "setting": "U87MG", "result": "13.4 ± 0.4", "unit": "µM"}, {"measurement": "IC50", "setting": "MIAPaCa-2 [1]", "result": 13.9, "unit": "µM"}, {"measurement": "IC50", "setting": "AsPC1", "result": "17.2 ± 0.7", "unit": "µM"}, {"measurement": "IC50", "setting": "Panc1", "result": "16.5 ± 0.2", "unit": "µM"}, {"measurement": "IC50", "setting": "SW480", "result": "16 ± 0.3", "unit": "µM"}, {"measurement": "IC50", "setting": "cancer cell lines; Homo sapiens, Pancreatic cancer cell, 48 h, range, 48 hr treatment, read-out: IC50, glioma, cervical and pancreatic cancer cell lines", "result": "11 to 14", "unit": "µM"}, {"measurement": "inhibition at 20 µM", "setting": "cancer cell lines; Homo sapiens, mahanine at 20 μM, read-out: inhibition of cancer cells", "result": "75 to 85", "unit": "%"}, {"measurement": "IC50", "setting": "cancer cell lines; range over glioma and cervical cancer cell lines, 48 hr, listed as 1b, read-out: IC50, glioma and cervical cancer cells", "result": "30 to 50", "unit": "µM"}, {"measurement": "IC50", "setting": "cancer cell lines; range over glioma and cervical cancer cell lines, 48 hr, read-out: IC50, glioma and cervical cancer cells", "result": "12 to 17", "unit": "µM"}, {"measurement": "apoptosis (7-AAD+ve cells)", "setting": "ME180", "result": 80.5, "unit": "%"}, {"measurement": "dose needed to initiate dissociation of Hsp90-Cdc37", "setting": "Hsp90-Cdc37 complex; HeLa, 24 hr", "result": 17.5, "unit": "µM"}, {"measurement": "dose adequate to begin Hsp90-Cdc37 dissociation", "setting": "Hsp90-Cdc37 complex; MIAPaCa2, 24 hr", "result": 12.5, "unit": "µM"}, {"measurement": "dose showing significant decrease of association of Hsp90-Cdc37 complex", "setting": "Hsp90-Cdc37 complex; U87MG, 24 hr", "result": 15, "unit": "µM"}, {"measurement": "wound closure / migratory cells", "setting": "MIAPaCa-2 [2]", "result": "< 5", "unit": "%"}, {"measurement": "wound closure / migratory cells", "setting": "BxPC-3", "result": "< 5", "unit": "%"}, {"measurement": "Creatinine", "setting": "In vivo toxicity in mice; mouse, in vivo", "result": 3.72, "unit": "mg/dL"}, {"measurement": "Hb", "setting": "In vivo toxicity in mice; mouse, in vivo", "result": 13.64, "unit": "gm/dl"}, {"measurement": "SGOT", "setting": "In vivo toxicity in mice; mouse, in vivo", "result": 174.0, "unit": "Unit/ml"}, {"measurement": "SGPT", "setting": "In vivo toxicity in mice; mouse, in vivo", "result": 34.7, "unit": "Unit/ml"}, {"measurement": "Urea", "setting": "In vivo toxicity in mice; mouse, in vivo", "result": 48.6, "unit": "mg/dL"}, {"measurement": "tolerated dose", "setting": "In vivo toxicity in mice; normal Balb/c mice, consecutive 20 days", "result": 150, "unit": "mg/kg/day"}, {"measurement": "secondary metabolites in blood (mass spectroscopy)", "setting": "[3]", "result": "no production of secondary metabolites"}]}]}
